Results taken from patent US4207330A, “Method for treating hyperglycemia in mammals using arylamino benzoic acids” (The Dow Chemical Company, priority 1979, dated 1980).
Read-outs that look alike come from different tables or passages of the source.

Tested on: serum glucose
Assay: Hypoglycemic activity in alanine-induced mice (percent lowering of serum glucose; ED50)
Type: in vivo, male Swiss-Webster mice
Conditions: for inhibition in vivo at 60 mg/kg / ED50: Mus musculus, ip, 1 h; for inhibition in vivo at 60 mg/kg: 60 mg/kg intraperitoneal, 15 min before 10 mmol/kg L-alanine i.p., serum glucose 60 min after compound, 100% = lowering from alanine-induced level to fasted control level, read-out: % Lowering Blood Sugar; for ED50: read-out: ED50 (amount required to obtain a 50% reduction in serum glucose as compared to the control animals)
Protocol: Alanine is the most glucogenic of the amino acids and also stimulates gluconeogensis in normal animals. Animals suffering from diabetes show an exaggerated hyperglycemic response to a protein or amino acid meal, therefore the hyperglycemic state induced by alanine closely parallels the response of a diabetic mammal.
Fifteen minutes later the same mice were injected intrapertioneally with 10 m moles/kg body weight of L-alanine. Sixty minutes after injection of the active compound, the animals were sacrificed and their sera were analyzed for glucose. The control consisted of both fasted mice and mice injected with alanine. The results are expressed as percent lowering of serum glucose from the alanine induced hyperglycemic level to the fasted control glucose level, i.e. lowering to the fasting glucose level is 100% lowering.
The effective dose (ED50) of several of the subject compounds were determined.
*effective dose represents the amount of the active ingredient required t
obtain a 50% reduction in serum glucose as compared to the control

[1] = 50% reduction in serum glucose vs control animals

Row | Structure (SMILES) | inhibition in vivo at 60 mg/kg [%] | also measured
1 | O=C(O)c1ccc(NCc2cccc(Cl)c2)cc1 [Example 9, 4-(((3-chlorophenyl)methyl)amino)benzoic acid] | 64 | 
2 | O=C(O)c1ccc(Nc2ccccc2)cc1 [Example 1, p-anilinobenzoic acid] | 88 | 
3 | CCc1ccc(CNc2ccc(C(=O)O)cc2)cc1 [Example 5, 4-(((4-ethylphenyl)methyl)amino)benzoic acid] | 96 | ED50 [1]: 15 mg/kg
4 | Cc1ccc(CNc2ccc(C(=O)O)cc2)cc1 [Example 4, 4-(((4-methylphenyl)methyl)amino)benzoic acid] | 144 | ED50 [1]: 15 mg/kg
5 | O=C(O)c1ccc(NCc2ccc(C(F)(F)F)cc2)cc1 [Example 11, 4-(((4-(trifluoromethyl)phenyl)methyl)amino)benzoic] | 106 | 
6 | CC(C)c1ccc(CNc2ccc(C(=O)O)cc2)cc1 [Example 2, 4-(((4-(1-methylethyl)phenyl)methyl)amino)benzoic acid] | 78 | 
7 | O=C(O)c1ccc(NCc2ccc(F)cc2)cc1 [Example 6, 4-(((4-fluorophenyl)methyl)amino)benzoic acid] | 110 | 
8 | O=C(O)c1ccc(NCc2ccc(Cl)cc2)cc1.[Na] [Example 12, 4-(((4-chlorophenyl)methyl)amino)benzoic acid sodium] |  | ED50: 6 mg/kg
9 | O=C(O)c1ccc(NCc2cc(Cl)c(Cl)s2)cc1 [Example 14, 4-(((4,5-dichloro-2-thienyl)methyl)amino)benzoic acid] | 83 | 
10 | O=C(O)c1ccc(NCc2ccc(Cl)cc2)cc1 [Example 3, 4-(((4-chlorophenyl)methyl)amino)benzoic acid] | 111 | ED50 [1]: 11 mg/kg
11 | O=C(O)c1ccc(NCc2cccc(F)c2)cc1 [Example 13, 4-(((3-fluorophenyl)methyl)amino)benzoic acid] | 52 | 
12 | CCOC(=O)c1ccc(NCc2cccs2)cc1 [Example 7, 4-((2-thienylmethyl)amino)benzoic acid ethyl ester] | 78 | 
13 | O=C(O)c1ccc(NCc2cccs2)cc1 [Example 8, 4-((2-thienylmethyl)amino)benzoic acid] | 51 | 
14 | O=C(O)c1ccc(NCCCc2ccccc2)cc1 [Example 10, 4-((3-phenylpropyl)amino)benzoic acid] | 99 | 
15 | O=C(O)c1ccc(NCc2ccc(Br)s2)cc1 [Example 15, 4-(((5-bromo-2-thienyl)methyl)amino)benzoic acid] | 210 | ED50 [1]: 4.6 mg/kg; hypoglycemic activity at low dosage (in words) (mice, dosages as low as 7.5 mg per kg of body weight): significant hypoglycemic activity; hypoglycemic activity (in words) (mice, compounds tested): highest activity as a hypoglycemic agent of the compounds tested
